Literature values in patent US20150073057A1, “COMPOSITION AND METHOD FOR TREATMENT OF DIABETES” (BioKier, Inc., priority 2013, published 2015).

Tested on: overweight and obese human subjects

Substance: Oxyntomodulin: a gut hormone, 37 amino acid peptide co-secreted along with GLP-1 from L-cells
- reduction of energy intake: ~17%
